In US8404708B2, “Dual NK1/NK3 receptor antagonists” (Hoffmann-La Roche Inc., priority 2004, dated 2013):
Read-outs that look alike come from different tables or passages of the source.

What was measured:
[1] = target: T1, Recombinant human NK3 (hNK3) receptor (Homo sapiens, UniProt P29371); assay: NK3 receptor binding, [3H]SR142801 displacement, membrane preparations
T1 construct: expressed in transfected cells
T1 sequence (P29371 1-465): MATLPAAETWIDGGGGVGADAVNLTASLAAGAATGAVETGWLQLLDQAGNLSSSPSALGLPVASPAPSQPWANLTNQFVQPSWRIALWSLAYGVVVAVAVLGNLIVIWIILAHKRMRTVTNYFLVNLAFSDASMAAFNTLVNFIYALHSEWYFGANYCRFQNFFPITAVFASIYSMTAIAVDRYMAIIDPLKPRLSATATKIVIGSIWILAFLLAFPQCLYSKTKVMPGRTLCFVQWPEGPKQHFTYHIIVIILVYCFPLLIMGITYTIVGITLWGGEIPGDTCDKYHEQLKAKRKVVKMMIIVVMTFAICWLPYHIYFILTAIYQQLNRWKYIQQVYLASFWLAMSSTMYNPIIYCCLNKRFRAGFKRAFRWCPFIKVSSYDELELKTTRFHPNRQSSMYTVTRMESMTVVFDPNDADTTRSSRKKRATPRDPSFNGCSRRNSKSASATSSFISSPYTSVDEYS
How it was run: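 hNK3 membranes (~2.5 μg/well) incubated 90 min at room temperature in 50 mM Tris-HCl pH 7.4 with 0.1% BSA, 4 mM MnCl2, 1 μM phosphoramidon. Nonspecific binding defined with 10 μM SB222200; bound [3H]SR142801 separated by filtration on PEI-soaked GF/C filters and counted by scintillation.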

human NK1 receptor = human NK1 receptor (Homo sapiens, UniProt P25103); assay: NK1 receptor binding, [3H]substance P displacement, CHO cell membranes
[2] = second value of the cell NK1/NK3, read-out: pKi NK3 (converted)
[3] = first value of the cell NK1/NK3, read-out: pKi NK1 (converted)
[4] = second value of the cell pKi NK1/NK3, hNK3 receptor, [3H]SR142801
[5] = first value of the cell pKi NK1/NK3, human NK1 receptor, [3H]substance P

Sequence of human NK1 receptor (P25103 whole entry): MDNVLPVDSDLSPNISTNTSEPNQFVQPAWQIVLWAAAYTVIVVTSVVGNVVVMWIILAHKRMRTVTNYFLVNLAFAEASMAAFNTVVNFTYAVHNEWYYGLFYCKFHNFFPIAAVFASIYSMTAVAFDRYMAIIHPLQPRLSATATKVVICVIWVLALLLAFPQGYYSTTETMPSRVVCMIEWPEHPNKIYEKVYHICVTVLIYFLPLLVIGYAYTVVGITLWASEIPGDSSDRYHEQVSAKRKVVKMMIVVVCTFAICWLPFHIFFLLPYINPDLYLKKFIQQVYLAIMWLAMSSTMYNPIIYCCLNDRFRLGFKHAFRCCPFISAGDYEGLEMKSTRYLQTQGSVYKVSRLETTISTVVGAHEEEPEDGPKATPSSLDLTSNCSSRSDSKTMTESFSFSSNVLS

SMILES | Ki [1, 2] | Ki (human NK1 receptor; [3]) | Ki [1, 4] | Ki (human NK1 receptor; [5])
CN(C(=O)C(C)(C)c1cc(C(F)(F)F)cc(C(F)(F)F)c1)c1cnc(N2C[C@H](O)C[C@H]2CO)cc1-c1ccc(F)cc1CO [Example 223, (2S,4R)-2-(3,5-Bis-trifluoromethyl-phenyl)-N-[4-(4-fluoro-2-hydroxymethyl-phenyl)-6-(4-hydroxy-2-hydroxymethyl-pyrrolidin-1-yl)-pyridin-3-yl]-N-methyl-isobutyramide] | 3.09 nM | 0.708 nM | – | –
CC(=O)N[C@H]1C[C@@H](CO)N(c2cc(-c3ccccc3Cl)c(N(C)C(=O)C(C)(C)c3cc(C(F)(F)F)cc(C(F)(F)F)c3)cn2)C1 [Example 40, (2S,4S)-N-[6-(4-Acetylamino-2-hydroxymethyl-pyrrolidin-1-yl)-4-(2-chloro-phenyl)-pyridin-3-yl]-2-(3,5-bis-trifluoromethyl-phenyl)-N-methyl-isobutyramide] | – | – | 1.02 nM | 0.646 nM
Cc1cc(F)ccc1-c1cc(N2CCS(=O)(=O)CC2CO)ncc1N(C)C(=O)C(C)(C)c1cc(C(F)(F)F)cc(C(F)(F)F)c1 (racemic) [Example 177, (RS)-2-(3,5-Bis-trifluoromethyl-phenyl)-N-[4-(4-fluoro-2-methyl-phenyl)-6-(3-hydroxymethyl-1,1-dioxo-1λ^6-thiomorpholin-4-yl)-pyridin-3-yl]-N-methyl-isobutyramide] | – | – | 2.63 nM | 1.2 nM
Cc1ccccc1-c1cc(N(CCO)CCO)ncc1N(C)C(=O)C(C)(C)c1cc(C(F)(F)F)cc(C(F)(F)F)c1 [Example 83, N-{6-[Bis-(2-hydroxy-ethyl)-amino]-4-o-tolyl-pyridin-3-yl}-2-(3,5-bis-trifluoromethyl-phenyl)-N-methyl-isobutyramide] | – | – | 1.1 nM | 1.17 nM
CCCN(CCO)c1cc(-c2ccccc2C)c(N(C)C(=O)C(C)(C)c2cc(C(F)(F)F)cc(C(F)(F)F)c2)cn1 [Example 119, 2-(3,5-Bis-trifluoromethyl-phenyl)-N-{6-[(2-hydroxy-ethyl)-propyl-amino]-4-o-tolyl-pyridin-3-yl}-N-methyl-isobutyramide] | – | – | 2.29 nM | 3.98 nM
CCCCN(CCO)c1cc(-c2ccccc2Cl)c(N(C)C(=O)C(C)(C)c2cc(C(F)(F)F)cc(C(F)(F)F)c2)cn1 [Example 57, 2-(3,5-Bis-trifluoromethyl-phenyl)-N-[6-[butyl-(2-hydroxy-ethyl)-amino]-4-(2-chloro-phenyl)-pyridin-3-yl]-N-methyl-isobutyramide] | – | – | 27.5 nM | 10 nM
Cc1cc(F)ccc1-c1cc(N2CCC[C@H]2CO)ncc1N(C)C(=O)C(C)(C)c1cc(Cl)cc(Cl)c1 [Example 22, (S)-2-(3,5-Dichloro-phenyl)-N-[4-(4-fluoro-2-methyl-phenyl)-6-(2-hydroxymethyl-pyrrolidin-1-yl)-pyridin-3-yl]-N-methyl-isobutyramide] | – | – | 1.17 nM | 5.13 nM
Cc1ccccc1-c1cc(N2C[C@@H](O)C[C@H]2CO)ncc1N(C)C(=O)C(C)(C)c1cc(C(F)(F)F)cc(C(F)(F)F)c1 [Example 241, (2S,4S)-2-(3,5-Bis-trifluoromethyl-phenyl)-N-[6-(4-hydroxy-2-hydroxymethyl-pyrrolidin-1-yl)-4-o-tolyl-pyridin-3-yl]-N-methyl-isobutyramide] | 1.62 nM | 1.45 nM | – | –
CN(C(=O)C(C)(C)c1cc(C(F)(F)F)cc(C(F)(F)F)c1)c1cnc(N[C@H]2CC[C@H](O)CC2)cc1-c1ccccc1Br [Example 132, trans-2-(3,5-Bis-trifluoromethyl-phenyl)-N-[4-(2-bromo-phenyl)-6-(4-hydroxy-cyclohexylamino)-pyridin-3-yl]-N-methyl-isobutyramide] | – | – | 7.24 nM | 1.32 nM
CN(C(=O)C(C)(C)c1cc(C(F)(F)F)cc(C(F)(F)F)c1)c1cnc(N2C[C@@H](O)C[C@H]2CO)cc1-c1cccc(Cl)c1Cl [Example 253, (2S,4S)-2-(3,5-Bis-trifluoromethyl-phenyl)-N-[4-(2,3-dichloro-phenyl)-6-(4-hydroxy-2-hydroxymethyl-pyrrolidin-1-yl)-pyridin-3-yl]-N-methyl-isobutyramide] | 3.16 nM | 2.88 nM | – | –
Cc1ccccc1-c1cc(N2CCC[C@H]2CO)ncc1N(C)C(=O)C(C)(C)c1cc(C(F)(F)F)cc(C(F)(F)F)c1 [Example 279, (S)-2-(3,5-Bis-trifluoromethyl-phenyl)-N-[6-(2-hydroxymethyl-pyrrolidin-1-yl)-4-o-tolyl-pyridin-3-yl]-N-methyl-isobutyramide] | 1.17 nM | 2.82 nM | – | –
Cc1ccccc1-c1cc(N2C[C@@H](F)C[C@H]2CO)ncc1N(C)C(=O)C(C)(C)c1cc(C(F)(F)F)cc(C(F)(F)F)c1 [Example 297, (2S,4S)-2-(3,5-Bis-trifluoromethyl-phenyl)-N-[6-(4-fluoro-2-hydroxymethyl-pyrrolidin-1-yl)-4-o-tolyl-pyridin-3-yl]-N-methyl-isobutyramide] | 1.32 nM | 2.88 nM | – | –
Cc1cc(C)cc(C(C)(C)C(=O)N(C)c2cnc(N3CCC[C@H]3CO)cc2-c2ccccc2Cl)c1 [Example 9, (S)-N-[4-(2-Chloro-phenyl)-6-(2-hydroxymethyl-pyrrolidin-1-yl)-pyridin-3-yl]-2-(3,5-dimethyl-phenyl)-N-methyl-isobutyramide] | – | – | 3.63 nM | 6.46 nM
CN(C(=O)C(C)(C)c1cc(F)cc(C(F)(F)F)c1)c1cnc(N2CCC[C@H]2CO)cc1-c1ccccc1Cl [Example 4, (S)-N-[4-(2-Chloro-phenyl)-6-(2-hydroxymethyl-pyrrolidin-1-yl)-pyridin-3-yl]-2-(3-fluoro-5-trifluoromethyl-phenyl)-N-methyl-isobutyramide] | – | – | 1.55 nM | 4.47 nM
Cc1cc(F)ccc1-c1cc(NCCO)ncc1N(C)C(=O)C(C)(C)c1cc(Cl)cc(Cl)c1 [Example 21, 2-(3,5-Dichloro-phenyl)-N-[4-(4-fluoro-2-methyl-phenyl)-6-(2-hydroxy-ethylamino)-pyridin-3-yl]-N-methyl-isobutyramide] | – | – | 8.71 nM | 1.29 nM
CCC(O)CNc1cc(-c2ccccc2Cl)c(N(C)C(=O)C(C)(C)c2cc(C(F)(F)F)cc(C(F)(F)F)c2)cn1 (centres unmarked) [Example 76, 2-(3,5-Bis-trifluoromethyl-phenyl)-N-[4-(2-chloro-phenyl)-6-(2-hydroxy-butylamino)-pyridin-3-yl]-N-methyl-isobutyramide] | – | – | 10.7 nM | 1.58 nM
CN(C(=O)C(C)(C)c1cc(C(F)(F)F)cc(C(F)(F)F)c1)c1cnc(N2CC[C@H](O)[C@H]2CO)cc1-c1ccccc1C(F)(F)F [Example 262, (2R,3S)-2-(3,5-Bis-trifluoromethyl-phenyl)-N-[6-(3-hydroxy-2-hydroxymethyl-pyrrolidin-1-yl)-4-(2-trifluoromethyl-phenyl)-pyridin-3-yl]-N-methyl-isobutyramide] | 9.77 nM | 7.94 nM | – | –
CN(C(=O)C(C)(C)c1cc(C(F)(F)F)cc(C(F)(F)F)c1)c1cnc(N2C[C@H](O)C[C@@H](O)C2)cc1-c1ccccc1Cl [Example 180, (3R,5R)-2-(3,5-Bis-trifluoromethyl-phenyl)-N-[4′-(2-chloro-phenyl)-3,5-dihydroxy-3,4,5,6-tetrahydro-2H-[1,2′]bipyridinyl-5′-yl]-N-methyl-isobutyramide] | – | – | 3.24 nM | 1.62 nM
C[C@H](CO)Nc1cc(-c2ccccc2Cl)c(N(C)C(=O)C(C)(C)c2cc(C(F)(F)F)cc(C(F)(F)F)c2)cn1 [Example 80, (R)-2-(3,5-Bis-trifluoromethyl-phenyl)-N-[4-(2-chloro-phenyl)-6-(2-hydroxy-1-methyl-ethylamino)-pyridin-3-yl]-N-methyl-isobutyramide] | – | – | 8.91 nM | 1.26 nM
Cc1cc(F)ccc1-c1cc(NCCO)ncc1N(C)C(=O)C(C)(C)c1cc(C(F)(F)F)cc(C(F)(F)F)c1 [Example 68, 2-(3,5-Bis-trifluoromethyl-phenyl)-N-[4-(4-fluoro-2-methyl-phenyl)-6-(2-hydroxy-ethylamino)-pyridin-3-yl]-N-methyl-isobutyramide] | – | – | 3.24 nM | 1.45 nM
Cc1cc(F)ccc1-c1cc(N2CCC[C@H]2CO)ncc1N(C)C(=O)C(C)(C)c1cc(F)cc(C(F)(F)F)c1 [Example 24, (S)-N-[4-(4-Fluoro-2-methyl-phenyl)-6-(2-hydroxymethyl-pyrrolidin-1-yl)-pyridin-3-yl]-2-(3-fluoro-5-trifluoromethyl-phenyl)-N-methyl-isobutyramide] | – | – | 0.891 nM | 1.32 nM
CN(C(=O)C(C)(C)c1cc(C(F)(F)F)cc(C(F)(F)F)c1)c1cnc(N2C[C@@H](O)C[C@H]2CO)cc1-c1ccccc1 [Example 247, (2S,4S)-2-(3,5-Bis-trifluoromethyl-phenyl)-N-[6-(4-hydroxy-2-hydroxymethyl-pyrrolidin-1-yl)-4-phenyl-pyridin-3-yl]-N-methyl-isobutyramide] | 15.8 nM | 1.51 nM | – | –
